Measured values reported in patent US10717964B2, “Synthetic methylotrophy to liquid fuels and chemicals” (University of Delaware, priority 2014, dated 2020).

Columns and labels:
E. coli pACM4_pFRM_GFP = assay type: cell-based; conditions: 500 and 1000 μM HCHO, MOPS+0.1% glucose
Description: (§1) GFP expression correlated with HCHO concentration over time. Overnight LB cultures were transferred to MOPS+0.1% glucose for the experiment.

E. coli pETM6_Pfrm_GFP = assay type: cell-based; conditions: 2 and 4 mM HCHO, MOPS+0.1% glucose
Description: as §1

[1] = tested on: E. coli Rosetta empty vector control (pET21_Empty); assay: Growth of empty vector control E. coli in media spiked with formaldehyde; assay type: cell-based; conditions: LB plus formaldehyde (2 mM) or mixture of M9 and LB plus formaldehyde (1.5 mM)
Description: FIGS. 42A-B show growth of E. coli expressing HPS and PHI genes from M. gastri. The ability of E. coli to grow in A) LB or B) mixed M9:LB (3:1) spiked with formaldehyde was assessed. Log phase cultures of E. coli harboring pET_M.g.PHI_HPS (circles) or pET21_Empty (squares) were induced with 0.5 mM IPTG for 3 h before being diluted into test media containing 2 mM formaldehyde (LB) or 1.5 mM formaldehyde (M9:LB). Aliquots were taken from the cultures at the indicated time points to determine the optical density (OD600). Arrows indicate times in which the cultures were spiked with (A) 2 mM or (B) 1.5 mM formaldehyde.
Primers were designed to amplify the Mycobacterium gastri phi-hps operon, which encodes the genes necessary to fix formaldehyde to ribulose-5-phosphate yielding hexulose-6-phosphate, and then convert […] to fructose-6-phosphate. Genes were amplified and initially cloned into the expression vector pET21a (Novagen). This vector utilizes the T7 promoter, and was transformed into the Rosetta strain of E. coli. E. coli Rosetta expressing the M. gastri PHI-HPS operon was compared with an empty vector control for growth in LB with 2 mM formaldehyde (FIG. 42A-B). […] When the same strains were tested in M9 minimal media containing only formaldehyde (0.25 mM) as the sole carbon source, no increase in OD600 was observed (FIG. 43).

[2] = tested on: E. coli pACM4_pFRM_GFP+pETM6-BstMDH; assay type: cell-based; conditions: 2000 and 4000 mM methanol, MOPS+0.1% glucose
Description: Overnight LB cultures were transferred to MOPS+0.1% glucose for the experiment.

[3] = tested on: formate dehydrogenase (FDH, fdh) from Clostridium carboxidivorans P7T; conditions: read-out: Km (for NADH); cited from earlier work
[4] = substrate: CO; assay: cells, lysate or membranes named; conditions: other: crude cell extracts of E. coli, in vitro

Molecule: C=O [formaldehyde]
- growth (E. coli pACM4_pFRM_GFP): Retarded growth
- growth (E. coli pETM6_Pfrm_GFP): No growth was observed
- growth [1]: unable to grow

Molecule: CO [methanol]
- growth [2]: Retarded growth

Molecule: NC(=O)C1=CN([C@@H]2O[C@H](COP(=O)(O)OP(=O)(O)OC[C@H]3O[C@@H](n4cnc5c(N)ncnc54)[C@H](O)[C@@H]3O)[C@@H](O)[C@H]2O)C=CC1 [NADH]
- Km [3]: 50 µM

B1: methanol dehydrogenase MDH1 (MDH) from Bacillus stearothermophilus (Geobacillus stearothermophilus) (protein)
chain: MKAAVVNEFKKALEIKEVERPKLEEGEVLVKIEACGVCHTDLHAAHGDWPIKPKLPLIPGHEGVGIVVEVAKGVKSIKVGDRVGIPWLYSACGECEYCLTGQETLCPHQLNGGYSVDGGYAEYCKAPADYVAKIPDNLDPVEVAPILCAGVTTYKALKVSGARPGEWVAIYGIGGLGHIALQYAKAMGLNVVAVDISDEKSKLAKDLGADIAINGLKEDPVKAIHDQVGGVHAAISVAVNKKAFEQAYQSVKRGGTLVVVGLPNADLPIPIFDTVLNGVSVKGSIVGTRKDMQEALDFAARGKVRPIVETAELEEINEVFERMEKGKINGRIVLKLKED
- Km [4]: 27000 µM
